Test results reported in patent publication US10041937B2, “Macrophage identification agent, and identification method, sorting method, evaluation method, screening method and kit using the macrophage identifier agent” (CANON KABUSHIKI KAISHA, priority 2013, dated 2018).

Tested on: M1 macrophages and M2 macrophages differentiated from mouse bone marrow cells
Experiment: Subtype identification by staining and flow cytometry of M1 and M2 macrophages differentiated from mouse bone marrow cells
Format: cell-based, Balb/c mouse
Method in brief: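 Balb/c mouse bone marrow cells were differentiated to macrophages with 50 ng/mL M-CSF over two 3–4-day periods, then polarized for 3 days to M1 (interferon-γ plus polyliposaccharide) or M2 (IL-4). Live cells (aqua dye-negative) were analysed by flow cytometry; resolution R = |FM1−FM2|/(WM1+WM2) from histogram peak positions and widths indexed subtype discrimination.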

[1] = fluorescence intensity at peak top of histogram, compound 1 μM, 37° C., 30 minutes

CCOC(=O)CCN1C(=O)/C(=C\c2ccc3c(c2)C2CCCC2N3CC)SC1=S (centres unmarked) [compound (1)]
Resolution ratio R (R=|FM1−FM2|/(WM1+WM2), compound 1 μM): 1.150 | Peak position of M1 macrophage [1]: 85.8 | Peak position of M2 macrophage [1]: 12.4 | Evaluation of macrophage subtype identification (rated from resolution R): A (The compound is very good in the subtype identification (namely, the resolution R is 0.5 or more)) | subtype more strongly stained (two compounds used in combination, each 1 μM): the M1 macrophages are more strongly stained than the M2 macrophages
